Data published in patent publication US8361796B2, “Method for generating primate cardiovascular progenitor cells for clinical use from primate embryonic stem cells or embryonic-like state cells, and their applications” (Assistance Publique—Hopitaux de Paris, priority 2008, dated 2013).

Tests used:
CD15+ cells = experiment: Differentiation of CD15+ sorted cells treated with VEGF or PDGF; format: cell-based, primate; conditions: 10 or 50 ng/ml
Description: FIGS. 11A, 11B and 11C: CD15+ cells express cardiac, endothelial and vascular proteins markers; CD15+ sorted cells were cultured for 5 days on MEF and immunostained with the indicated markers; some cells were treated with VEGF or PDGF and immunostained with anti smooth muscle actin and myosin or CD31. Some others were cultured with human fibroblast isolated from the myocardium and stained with an anti-actinin antibody.
When cultured on human cardiac fibroblasts, CD15+ cells differentiate into actinin-positive cardiomyocytes.

insulin receptor = insulin receptor (Homo sapiens, UniProt P06213); conditions: cited from earlier work
Sequence of insulin receptor (P06213 28-1382, species assumed): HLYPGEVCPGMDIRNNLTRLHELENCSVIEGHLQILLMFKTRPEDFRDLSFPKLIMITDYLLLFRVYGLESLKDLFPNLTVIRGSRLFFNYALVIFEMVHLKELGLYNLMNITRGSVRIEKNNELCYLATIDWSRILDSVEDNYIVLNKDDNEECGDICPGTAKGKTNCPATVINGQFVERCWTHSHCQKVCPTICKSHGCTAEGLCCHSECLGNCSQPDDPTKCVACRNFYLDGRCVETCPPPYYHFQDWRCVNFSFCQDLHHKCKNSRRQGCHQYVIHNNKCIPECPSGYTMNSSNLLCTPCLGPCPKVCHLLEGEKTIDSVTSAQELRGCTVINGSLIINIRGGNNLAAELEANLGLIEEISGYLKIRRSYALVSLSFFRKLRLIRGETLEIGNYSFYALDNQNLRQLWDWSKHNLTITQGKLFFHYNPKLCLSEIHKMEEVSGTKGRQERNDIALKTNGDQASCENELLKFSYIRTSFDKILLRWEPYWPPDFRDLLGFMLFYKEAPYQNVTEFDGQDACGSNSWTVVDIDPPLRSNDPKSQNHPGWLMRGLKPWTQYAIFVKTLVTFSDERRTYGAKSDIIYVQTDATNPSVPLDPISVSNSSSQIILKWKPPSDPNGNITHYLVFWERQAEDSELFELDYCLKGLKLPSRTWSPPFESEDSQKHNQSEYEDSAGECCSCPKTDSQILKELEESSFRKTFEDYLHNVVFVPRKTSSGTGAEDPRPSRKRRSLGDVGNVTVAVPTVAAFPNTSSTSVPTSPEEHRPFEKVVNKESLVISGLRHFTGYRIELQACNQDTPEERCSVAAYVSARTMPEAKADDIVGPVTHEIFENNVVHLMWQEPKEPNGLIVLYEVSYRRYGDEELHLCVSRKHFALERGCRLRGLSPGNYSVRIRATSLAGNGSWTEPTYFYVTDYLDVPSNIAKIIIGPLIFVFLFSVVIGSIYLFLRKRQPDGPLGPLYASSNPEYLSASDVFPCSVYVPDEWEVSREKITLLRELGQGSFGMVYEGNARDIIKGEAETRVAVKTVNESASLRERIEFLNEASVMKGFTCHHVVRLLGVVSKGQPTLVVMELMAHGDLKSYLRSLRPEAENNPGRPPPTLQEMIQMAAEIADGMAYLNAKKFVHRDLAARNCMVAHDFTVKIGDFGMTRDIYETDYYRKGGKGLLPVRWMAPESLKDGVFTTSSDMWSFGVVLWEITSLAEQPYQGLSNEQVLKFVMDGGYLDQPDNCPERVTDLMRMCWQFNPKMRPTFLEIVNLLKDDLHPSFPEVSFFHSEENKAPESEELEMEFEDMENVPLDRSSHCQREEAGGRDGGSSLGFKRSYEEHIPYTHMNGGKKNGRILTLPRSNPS

PDGF receptor = conditions: cited from earlier work
[1] = target: fibroblast growth factor receptor 1 (FGFR1) (Homo sapiens, UniProt P11362); conditions: read-out: IC50, tyrosine kinase activity of FGFR1; in the presence of 1 mM ATP; cited from earlier work
Sequence of fibroblast growth factor receptor 1 (FGFR1) (P11362 22-822, species assumed): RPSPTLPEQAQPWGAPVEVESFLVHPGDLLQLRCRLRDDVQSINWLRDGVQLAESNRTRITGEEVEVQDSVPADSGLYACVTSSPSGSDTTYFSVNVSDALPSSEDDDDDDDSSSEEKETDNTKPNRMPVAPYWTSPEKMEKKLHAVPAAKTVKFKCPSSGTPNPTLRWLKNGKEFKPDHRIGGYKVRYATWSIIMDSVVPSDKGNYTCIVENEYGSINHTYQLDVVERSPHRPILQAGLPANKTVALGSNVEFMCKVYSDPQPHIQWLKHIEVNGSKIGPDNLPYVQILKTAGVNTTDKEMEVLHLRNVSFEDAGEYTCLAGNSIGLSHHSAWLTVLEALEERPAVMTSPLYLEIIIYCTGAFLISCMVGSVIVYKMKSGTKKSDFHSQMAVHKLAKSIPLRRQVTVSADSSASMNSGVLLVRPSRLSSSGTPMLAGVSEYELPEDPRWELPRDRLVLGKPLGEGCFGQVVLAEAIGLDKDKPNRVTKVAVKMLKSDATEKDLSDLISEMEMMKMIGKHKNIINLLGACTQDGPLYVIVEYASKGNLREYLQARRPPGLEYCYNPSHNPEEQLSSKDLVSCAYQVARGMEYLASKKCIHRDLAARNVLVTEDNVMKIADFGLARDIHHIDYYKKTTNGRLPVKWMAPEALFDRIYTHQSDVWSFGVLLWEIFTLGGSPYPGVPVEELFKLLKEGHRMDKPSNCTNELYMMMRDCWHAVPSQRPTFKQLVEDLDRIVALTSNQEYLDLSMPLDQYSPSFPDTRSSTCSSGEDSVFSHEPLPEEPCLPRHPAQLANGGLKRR

EGF receptor = EGF receptor (Homo sapiens, UniProt P00533); conditions: cited from earlier work
Sequence of EGF receptor (P00533 25-1210): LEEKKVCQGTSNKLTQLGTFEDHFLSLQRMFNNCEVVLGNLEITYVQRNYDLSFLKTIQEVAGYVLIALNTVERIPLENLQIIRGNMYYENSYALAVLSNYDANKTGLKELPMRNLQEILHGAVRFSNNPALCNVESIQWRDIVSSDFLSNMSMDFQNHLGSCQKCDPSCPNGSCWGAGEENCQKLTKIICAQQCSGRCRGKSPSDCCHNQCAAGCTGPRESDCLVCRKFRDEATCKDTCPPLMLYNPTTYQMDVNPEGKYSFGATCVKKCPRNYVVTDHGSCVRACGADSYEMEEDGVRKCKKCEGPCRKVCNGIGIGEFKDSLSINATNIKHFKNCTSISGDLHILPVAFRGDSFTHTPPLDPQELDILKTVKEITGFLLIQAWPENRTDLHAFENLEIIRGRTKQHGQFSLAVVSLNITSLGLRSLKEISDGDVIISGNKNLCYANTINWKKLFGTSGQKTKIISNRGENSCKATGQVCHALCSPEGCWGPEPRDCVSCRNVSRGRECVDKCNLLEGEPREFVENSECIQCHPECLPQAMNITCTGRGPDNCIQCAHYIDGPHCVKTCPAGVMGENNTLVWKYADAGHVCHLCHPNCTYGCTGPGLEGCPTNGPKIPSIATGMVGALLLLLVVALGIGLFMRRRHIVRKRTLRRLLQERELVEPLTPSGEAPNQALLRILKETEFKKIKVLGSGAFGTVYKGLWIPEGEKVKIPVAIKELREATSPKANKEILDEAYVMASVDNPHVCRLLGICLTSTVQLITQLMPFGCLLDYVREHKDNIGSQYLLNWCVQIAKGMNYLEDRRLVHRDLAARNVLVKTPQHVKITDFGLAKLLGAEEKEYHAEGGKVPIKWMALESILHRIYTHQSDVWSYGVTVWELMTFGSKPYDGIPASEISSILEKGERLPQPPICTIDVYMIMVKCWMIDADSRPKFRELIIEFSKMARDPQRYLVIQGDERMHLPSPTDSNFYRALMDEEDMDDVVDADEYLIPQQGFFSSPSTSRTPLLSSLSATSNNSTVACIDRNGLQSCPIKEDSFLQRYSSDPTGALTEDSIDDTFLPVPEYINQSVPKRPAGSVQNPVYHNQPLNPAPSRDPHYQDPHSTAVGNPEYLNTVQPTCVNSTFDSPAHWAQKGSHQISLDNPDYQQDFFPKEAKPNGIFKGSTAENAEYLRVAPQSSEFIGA

ERK1 and ERK2 = conditions: read-out: IC50, aFGF-induced tyrosine phosphorylation of ERK1 and ERK2; cited from earlier work

Description for HUES-1 cells: HES cells were treated for 48 hrs with 10 ng/ml BMP2 in the presence or absence of 1 μM SU5402, a FGF receptor inhibitor, in low KO™SR (5%) containing KO™-DMEM.
Gene induction was tested using real time Q-PCR.

Compound	fate of CD15+ cells (CD15+ cells)	inhibition of phosphorylation of the insulin receptor (insulin receptor)	inhibition of tyrosine phosphorylation of the PDGF receptor (PDGF receptor)	IC50 [1] [µM]	enhancement of BMP2 induction of mesodermal and cardiac genes (HUES-1 cells; 48 hrs, 10 ng/ml BMP2 with 1 μM SU5402 versus BMP2 alone)	enhancement of BMP2 instructive action (HUES-1 cells; defined (KOSR) medium, SU5402 added to BMP2)	inhibition of the kinase activity of the EGF receptor (EGF receptor)	IC50 (ERK1 and ERK2) [µM]
VEGF	endothelial							
PDGF	smooth muscle cells							
Cc1c[nH]c(C=C2C(=O)Nc3ccccc32)c1CCC(=O)O [SU5402, 3-[3-(2-Carboxyethyl)-4-methylpyrrol-2-methylidenyl]-2-indolinone]		does not inhibit	only a weak inhibitor	10 to 20	3-10 folds	dramatically enhanced	does not inhibit	10 to 20
